In the assay the target is Tyrosine-protein kinase JAK2 (Homo sapiens, UniProt O60674). The assay is described as follows: JAK2 Z-Lyte Biochemical Assay. On the procedure:
The JAK2 Z-Lyte biochemical assay was performed according to manufacturer's instructions (Life Technologies).

Consider 1 compound from BindingDB's records for patent US20240101559 (Dana-Farber Cancer Institute, 2024).

Tyrosine-protein kinase JAK2, sequence (O60674 whole entry): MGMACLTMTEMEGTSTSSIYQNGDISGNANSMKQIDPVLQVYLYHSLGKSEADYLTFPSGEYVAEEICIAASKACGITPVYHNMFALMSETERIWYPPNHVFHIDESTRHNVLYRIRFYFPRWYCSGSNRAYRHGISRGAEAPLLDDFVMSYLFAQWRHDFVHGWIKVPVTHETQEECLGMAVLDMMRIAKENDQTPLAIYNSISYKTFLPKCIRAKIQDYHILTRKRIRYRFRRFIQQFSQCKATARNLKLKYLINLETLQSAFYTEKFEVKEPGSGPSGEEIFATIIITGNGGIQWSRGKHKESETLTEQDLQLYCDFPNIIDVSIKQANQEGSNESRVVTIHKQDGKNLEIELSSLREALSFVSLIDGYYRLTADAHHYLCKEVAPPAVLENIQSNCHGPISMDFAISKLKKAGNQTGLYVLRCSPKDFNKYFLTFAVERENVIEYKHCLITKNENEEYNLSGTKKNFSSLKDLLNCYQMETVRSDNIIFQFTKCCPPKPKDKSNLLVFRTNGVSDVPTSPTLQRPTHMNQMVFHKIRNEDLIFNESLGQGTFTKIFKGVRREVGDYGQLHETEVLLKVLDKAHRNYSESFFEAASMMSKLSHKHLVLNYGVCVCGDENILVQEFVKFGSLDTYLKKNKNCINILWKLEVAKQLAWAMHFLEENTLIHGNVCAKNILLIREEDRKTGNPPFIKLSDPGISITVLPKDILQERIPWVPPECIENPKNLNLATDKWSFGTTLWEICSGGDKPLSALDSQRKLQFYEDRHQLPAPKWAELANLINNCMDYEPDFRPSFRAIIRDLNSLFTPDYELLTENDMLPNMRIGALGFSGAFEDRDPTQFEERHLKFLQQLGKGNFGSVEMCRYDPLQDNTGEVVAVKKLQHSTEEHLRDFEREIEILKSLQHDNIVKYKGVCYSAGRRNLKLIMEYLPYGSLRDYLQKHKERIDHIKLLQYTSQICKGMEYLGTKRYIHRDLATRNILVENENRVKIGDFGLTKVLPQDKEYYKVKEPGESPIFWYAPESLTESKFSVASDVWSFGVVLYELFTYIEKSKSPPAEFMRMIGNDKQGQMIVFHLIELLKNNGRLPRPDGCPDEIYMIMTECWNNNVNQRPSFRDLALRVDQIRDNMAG

As for `CC(=O)Nc1cc(Oc2ccc3nc(Nc4cccc(C(C)(C)C#N)c4)n4c3c2CCC4)ccn1` [US20240101559, Compound I-2], half-maximal inhibition (IC50) was put at 4.07 µM.
